Patent US6335325B1, “Acylated 4-aminopyridine derivatives as pesticides and fungicides” (Bayer Aktiengesellschaft, priority 1997, dated 2002)

Legend:
[1] = logP determination by HPLC (EEC Directive 79/831 Annex V. A8); type: physicochemical; details: pH 2; pH2; HPLC gradient method, acetonitrile/0.1% strength aqueous phosphoric acid
Method: [logP=The logP values were determined in accordance with EEC Directive 79/831 Annex V. A8 by HPLC (gradient method, acetonitrile/0.1% strength aqueous phosphoric acid]

[2] = system: caterpillars of the owlet moth (Spodoptera exigua); experiment: Spodoptera exigua Test; type: in vivo; details: active compound concentration of 0.0008%; after 6 days; dipped cabbage leaves (Brassica oleracea)
Method: Solvent: 7 parts by weight of dimethylformamide
Emulsifier: 1 part by weight of alkylaryl polyglycol ether
After the desired period of time, the kill in % is determined. 100% means that all caterpillars have been killed; 0% means that none of the caterpillars have been killed.

## CCc1nccc(N(C(=O)Cc2ccc(Oc3ccc(C(N)=S)cc3)cc2)C(=O)OC(C)C)c1Cl [Preparation Example 1, N-(3-chloro-2-ethyl-pyridin-4-yl)-N-isopropoxycarbonyl-4-(4-aminothiocarbonylphenoxy)-phenylacetamide]
[1]
  chromatographic logP: 3.71
[2]
  kill in %: 100%
